Source: patent US4612329A, “Pharmaceutical alpha-aminoalkyl-alpha-alkylphenylacetonitriles” (Hokuriku Pharmaceutical Co., Ltd., priority 1984, dated 1986)

What follows are compounds tested on Alpha-receptor (assay: Alpha-receptor blocking action (thoracic aorta, noradrenaline)). Conditions: rabbit thoracic aorta helical strip, Krebs-Henseleit, 37° C., compound applied 30 min prior.
Parameters: species or system male rabbit
Description: 3. Alpha-receptor blocking action
The thoracic aorta was excised from male rabbit and helically cut. The helical strip was mounted in a tissue bath containing Krebs-Henseleit solution maintained at 37° C. A resting tension of 2.0 g was applied to the tissue. The change in tension, which was induced by cumulative application of noradrenaline, was isometrically measured by the FD-pickup. The tissue bath solution was bubbled with a mixture of 95% O2 -5% CO2. The test compounds were applied 30 min prior to cumulative application of noradrenaline. The degree of alpha-blocking action was expressed as the pA2 value.

SMILES	Alpha-blocking action, pA2 value
COc1ccc(C(C#N)(CCCNCCOc2ccccc2OC)C(C)C)cc1OC.O=C(O)/C=C\C(=O)O (stereo not drawn) [Example 4, Alpha-isopropyl-alpha-[3-[N-[2-(2-methoxyphenoxy)ethyl]amino]-propyl]-3,4-dimethoxyphenylacetonitrile Maleate]	8.25
COc1ccc(CCN(C)CCCC(C#N)(c2ccc(OC)c(OC)c2)C(C)C)cc1OC (stereo not drawn) [Verapamil, reference compound]	6.41
COc1ccc(C(C#N)(CCCNCCOc2ccccc2OC)C(C)C)cc1 (stereo not drawn) [Example 21]	8.02
CCC(C#N)(CCCNCCOc1ccccc1OC)c1cc(OC)c(OC)c(OC)c1 (stereo not drawn) [Example 90, Alpha-ethyl-alpha-[3-[N-[2-(2-methoxyphenoxy)ethyl]amino]propyl]-3,4,5-trimethoxyphenylacetonitrile]	8.79
CCCCC(C#N)(CCCNCCOc1ccccc1OC)c1cc(OC)c(OC)c(OC)c1 (stereo not drawn) [Example 92]	8.57
COc1ccccc1OCCNCCCC(C#N)(CC(C)C)c1cc(OC)c(OC)c(OC)c1 (stereo not drawn) [Example 93, Alpha-isobutyl-alpha-[3-[N-[2-(2-methoxyphenoxy)ethyl]amino]propyl]-3,4,5-trimethoxyphenylacetonitrile]	8.67
COc1ccccc1OCCNCCCC(C)(C#N)c1cc(OC)c(OC)c(OC)c1 (stereo not drawn) [Example 88]	8.40
CCCC(C#N)(CCCNCCOc1ccccc1OC)c1cc(OC)c(OC)c(OC)c1 (stereo not drawn) [Example 91]	8.46
COc1ccc(CCN(C)CCCC(C#N)(c2cc(OC)c(OC)c(OC)c2)C(C)C)cc1OC (stereo not drawn) [Gallopamil, reference compound]	6.11
COc1ccccc1OCCNCCCC(C#N)(c1cc(OC)c(OC)c(OC)c1)C(C)C (stereo not drawn) [Example 84, Alpha-isopropyl-alpha-[3-[N-[2-(2-methoxyphenoxy)ethyl]amino]propyl]-3,4,5-trimethoxyphenylacetonitrile]	8.42

These compounds were tested on aconitine-induced arrhythmias (assay: Anti-arrhythmic action (aconitine-induced arrhythmias in mice)). Conditions: 100 mg/kg orally 60 min prior to aconitine infusion, percent increase of aconitine needed to induce arrhythmias.
Type: in vivo, male ddY mice
Description: 2. Anti-arrhythmic action (aconitine-induced arrhythmias in mice)
Male ddY mice weighing about 30 g were anesthetized with pentobarbital sodium given intraperitoneally. Aconitine (1.32 μg/min) was continuously infused into a tail vein 15 min posterior to pentobarbital sodium administration. […] The amount of aconitine needed to induce arrhythmias was calculated from the time taken to the onset of the first premature ventricular systoles. The test compounds (100 mg/kg) were orally given 60 min prior to aconitine infusion. Their relative potencies to quinidine were compared by the percent increase of aconitine needed to induce arrhythmias.

SMILES	Anti-arrhythmic action, relative potency (quinidine = 1)
COc1ccccc1OCCCN(C)CCCC(C#N)(c1cc(OC)c(OC)c(OC)c1)C(C)C (stereo not drawn) [Example 119]	2.24
COc1cc(C(C#N)(CCCNCCCOc2cccc(N)c2)C(C)C)cc(OC)c1OC (stereo not drawn) [Example 128]	2.01
COc1cc(C(C#N)(CCCNCCOc2ccccc2)C(C)C)cc(OC)c1OC.Cl (stereo not drawn) [Example 3, Alpha-isopropyl-alpha-[3-(2-phenoxyethylamino)propyl]-3,4,5-trimethoxyphenylacetonitrile Hydrochloride]	2.01
COc1ccccc1OCCN(C)CCCC(C#N)(c1cc(OC)c(OC)c(OC)c1)C(C)C (stereo not drawn) [Example 85]	3.72
COc1cccc(C(C#N)(CCCNCCOc2ccccc2OC)C(C)C)c1 (stereo not drawn) [Example 19]	2.28
CC(C)N(CCC(C(N)=O)(c1ccccc1)c1ccccn1)C(C)C (stereo not drawn) [disopyramide, reference compound]	0.97
COc1cccc(C(C#N)(CCCNCCCOc2ccccc2OC)C(C)C)c1 (stereo not drawn) [Example 25]	2.34
COc1ccccc1OCCNCCCC(C)(C#N)c1cc(OC)c(OC)c(OC)c1 (stereo not drawn) [Example 88]	1.34
CCCc1ccccc1OCCCNCCCC(C#N)(c1cc(OC)c(OC)c(OC)c1)C(C)C (stereo not drawn) [Example 122]	1.21
COc1ccc(CCN(C)CCCC(C#N)(c2cc(OC)c(OC)c(OC)c2)C(C)C)cc1OC (stereo not drawn) [Gallopamil, reference compound]	0.30
COc1cc(C(C#N)(CCCNCCCOc2ccc(N)cc2)C(C)C)cc(OC)c1OC (stereo not drawn) [Example 126]	1.03
COc1ccc(C(C#N)(CCCNCCCOc2ccccc2OC)C(C)C)cc1OC (stereo not drawn) [Example 57]	1.52
COc1ccccc1OCCCNCCCC(C#N)(c1cc(OC)c(OC)c(OC)c1)C(C)C (stereo not drawn) [Example 118, Alpha-isopropyl-alpha-[3-[N-[3-(2-methoxyphenoxy)propyl]amino]propyl]-3,4,5-trimethoxyphenylacetonitrile]	2.65
COc1cc(C(C#N)(CCCNCCCOc2ccccc2N)C(C)C)cc(OC)c1OC (stereo not drawn) [Example 11, Alpha-isopropyl-alpha-[3-[N-[3-(2-aminophenoxy)propyl]amino]-propyl]-3,4,5-trimethoxyphenylacetonitrile]	1.51
COc1cccc(C(C#N)(CCCN(C)CCCOc2ccccc2OC)C(C)C)c1 (stereo not drawn) [Example 26]	1.60
COc1ccccc1OCCNCCCC(C#N)(c1cc(OC)c(OC)c(OC)c1)C(C)C (stereo not drawn) [Example 84, Alpha-isopropyl-alpha-[3-[N-[2-(2-methoxyphenoxy)ethyl]amino]propyl]-3,4,5-trimethoxyphenylacetonitrile]	2.52
COc1ccccc1OCCCNCCC(C#N)(c1cc(OC)c(OC)c(OC)c1)C(C)C.Cl (stereo not drawn) [Example 6, Alpha-isopropyl-alpha-[2-[N-[3-(2-methoxyphenoxy)propyl]-amino]ethyl]-3,4,5-trimethoxyphenylacetonitrile Hydrochloride]	2.02
COc1ccc(C(C#N)(CCCN(C)CCCOc2ccccc2OC)C(C)C)cc1OC (stereo not drawn) [Example 58]	1.64
COc1ccc(C(C#N)(CCCNCCCOc2ccccc2OC)C(C)C)cc1 (stereo not drawn) [Example 27]	1.43
COc1cccc(C(C#N)(CCCN(C)CCOc2ccccc2OC)C(C)C)c1 (stereo not drawn) [Example 20]	1.20
